Test [1] concerns PANC-1. The experiment in a line: Antiproliferative activity against human PANC1 cells assessed as reduction in cell viability after 72 hrs by WST-8 assay. In kind it is functional, cell-based. Particulars: PANC-1, 72 h. (Tetrazolium dyes change colour on reduction, which living cells bring about.)
Test [2] concerns HeLa. The experiment in a line: Antiproliferative activity against human HeLa cells assessed as reduction in cell viability after 72 hrs by WST-8 assay. The class given is functional, cell-based.
The subject of test [3] is PANC-1. The experiment in a line: Cytotoxicity against human PANC1 cells assessed as reduction in cell viability at 0.05 to 100 uM after 74 hrs by crystal violet staining based assay. The class given is functional.
For test [4], the system named is PANC-1. Put plainly: Cytotoxicity against human PANC1 cells assessed as reduction in cell viability at 0.78 uM after 74 hrs by crystal violet staining based assay. In kind it is functional.

Activity calls are given as the source filed them. No cut-off for these calls is given here.

Usually IC50 stands for the concentration at which inhibition is half-maximal.

For the compound `COC(=O)[C@@]1(C)C[C@@H](C)O[C@H]1O[C@@H]1C[C@H]2CC[C@@H]3[C@H](CC[C@]4(C)[C@@H](C5=CC(=O)OC5)C[C@@H](O)[C@]34O)[C@@]2(C(=O)O)C[C@H]1O`, the IC50 in test [1] was 5200 nM; in test [2], above 10000 nM.
For `Nc1ccn([C@@H]2O[C@H](CO)[C@@H](O)C2(F)F)c(=O)n1` [GEMCITABINE], the IC50 in test [1] turned out to be 5900 nM. Also, the outcome in test [3] was inactive.
Turning to `C[C@]12CC[C@H]3[C@@H](CC[C@@H]4C[C@@H](O[C@@H]5O[C@H](CO)[C@@H](O)[C@@H](O)[C@H]5O)CC[C@@]43C=O)[C@@]1(O)CC[C@@H]2C1=CC(=O)OC1`, the IC50 amounted to 150 nM in test [1] and 380 nM in test [2].
For `C[C@]12CC[C@H]3[C@@H](CC[C@@H]4C[C@@H](O)[C@H](O)C[C@@]43CO)[C@@]1(O)CC[C@@H]2C1=CC(=O)OC1` the same measures were 5100 nM and above 10000 nM.
As for `C[C@]12CC[C@H]3[C@@H](CC[C@@H]4C[C@H](O[C@@H]5O[C@H](CO)[C@@H](O)[C@H](O[C@H]6O[C@H](CO)[C@@H](O)[C@H](O)[C@H]6O)[C@H]5O)CC[C@@]43CO)[C@@]1(O)CC[C@@H]2C1=CC(=O)OC1`, the concentration for half-maximal inhibition (IC50) in test [1] was found to be 70 nM; in test [2] it was 170 nM. The Activity in test [4] was determined as 100%.
For `C[C@@H]1C[C@H](O)[C@]2(O)O[C@@H]3C[C@@]4(C=O)[C@@H](CC[C@@H]5[C@@H]4CC[C@]4(C)[C@@H](C6=CC(=O)OC6)CC[C@]54O)C[C@H]3O[C@@H]2O1` [CALOTROPIN], the IC50 in test [1] and in test [2] was above 10000 nM each time.
Take `C[C@]12CC[C@H]3[C@@H](CC[C@@H]4C[C@H](O[C@@H]5O[C@H](CO)[C@@H](O)[C@@H](O)[C@H]5O)CC[C@@]43COC=O)[C@@]1(O)CC[C@@H]2C1=CC(=O)OC1`: the results for the concentration for half-maximal inhibition (IC50) in test [1] and in test [2] were 250 nM and 670 nM, respectively.
`C[C@]12CC[C@H]3[C@@H](CC[C@@H]4C[C@H](O[C@@H]5O[C@H](CO)[C@@H](O)[C@@H](O[C@H]6O[C@H](CO)[C@@H](O)[C@H](O)[C@H]6O)[C@H]5O)CC[C@@]43CO)[C@@]1(O)CC[C@@H]2C1=CC(=O)OC1`: the IC50 in test [1] turned out to be 80 nM; in test [2], 170 nM. Further, the Activity in test [4] is recorded as 100%.
Take `C[C@]12CC[C@H]3[C@@H](CC[C@@H]4C[C@@H](O)[C@H](O)C[C@@]43C=O)[C@@]1(O)[C@H](O)C[C@@H]2C1=CC(=O)OC1`: the IC50 in test [1] and in test [2] was above 10000 nM throughout.
With `C[C@]12CC[C@H]3[C@@H](CC[C@@H]4C[C@H](O[C@@H]5O[C@H](CO)[C@@H](O)[C@@H](O)[C@H]5O)CC[C@@]43CO)[C@@]1(O)CC[C@@H]2C1=CC(=O)OC1`, the values for the IC50 in test [1] and in test [2] were 280 nM and 560 nM, respectively.
For `C[C@H]1O[C@@H](O[C@@H]2CC[C@@]34CO[C@@]5(CC[C@@H]3C2)[C@@H]4CC[C@]2(C)[C@H](C3=CC(=O)OC3)CC[C@@H]25)[C@H](O)[C@H](O)[C@@H]1O` the same measures were 4600 nM and above 10000 nM.
In the same order, the values of `C[C@H]1C[C@@](O)(CC(=O)O)[C@]2(O)O[C@@H]3C[C@@]4(C=O)[C@@H](CC[C@@H]5[C@@H]4CC[C@]4(C)[C@@H](C6=CC(=O)OC6)CC[C@]54O)C[C@H]3O[C@H]2O1` are 1000 nM and 1600 nM.

(Values after ChEMBL document CHEMBL4613243, “Calosides A-F, Cardenolides from Calotropis gigantea and Their Cytotoxic Activity” (J Nat Prod, 2020).)
